From the NIST ThermoML archive (doi:10.1021/acs.jced.7b00347)

Assay: mn = molality of the nth substance listed, in mol/kg
Details: for surface tension liquid-gas: Ring tensiometer; for electrical conductivity: 100 kPa, Liquid, Alternating current cell with electrodes

CCCCCCCCC[NH+](CCO)CC(C)O.[Cl-] (stereo unspecified) + O
Details	electrical conductivity [S/m]	surface tension liquid-gas [mN/m]
293.15 K, m1 = 1.77e-05	0.00044	–
293.15 K, m1 = 1.774e-05	–	61.16
293.15 K, m1 = 3.548e-05	–	54.59
293.15 K, m1 = 3.66e-05	0.000507	–
293.15 K, m1 = 5.55e-05	0.000574	–
293.15 K, m1 = 7.43e-05	0.000641	–
293.15 K, m1 = 8.87e-05	–	46.05
293.15 K, m1 = 9.32e-05	0.000709	–
293.15 K, m1 = 0.0001121	0.000776	–
293.15 K, m1 = 0.0001309	0.000843	–
293.15 K, m1 = 0.0001498	0.00091	–
293.15 K, m1 = 0.0001687	0.000977	–
293.15 K, m1 = 0.0001774	–	39.04
293.15 K, m1 = 0.0001875	0.00104	–
293.15 K, m1 = 0.0002064	0.00111	–
293.15 K, m1 = 0.0002253	0.00118	–
293.15 K, m1 = 0.0002441	0.00125	–
293.15 K, m1 = 0.000263	0.00131	–
293.15 K, m1 = 0.0002661	–	35.47
293.15 K, m1 = 0.0002819	0.00138	–
293.15 K, m1 = 0.0003008	0.00145	–
293.15 K, m1 = 0.0003196	0.00152	–
293.15 K, m1 = 0.0003385	0.00158	–
293.15 K, m1 = 0.0003548	–	33.14
293.15 K, m1 = 0.0003574	0.00165	–
293.15 K, m1 = 0.0003762	0.00172	–
293.15 K, m1 = 0.0003951	0.00178	–
293.15 K, m1 = 0.000414	0.00185	–
293.15 K, m1 = 0.0004257	–	31.39
293.15 K, m1 = 0.0004328	0.00192	–
293.15 K, m1 = 0.0004555	0.00197	–
293.15 K, m1 = 0.0004782	0.00202	–
293.15 K, m1 = 0.0005009	0.00207	–
293.15 K, m1 = 0.0005236	0.00212	–
293.15 K, m1 = 0.0005464	0.00217	–
293.15 K, m1 = 0.0005691	0.00222	–
293.15 K, m1 = 0.0005918	0.00227	–
293.15 K, m1 = 0.0006145	0.00232	–
293.15 K, m1 = 0.0006372	0.00236	–
293.15 K, m1 = 0.0006599	0.00242	–
293.15 K, m1 = 0.0006826	0.00246	–
293.15 K, m1 = 0.0007053	0.00251	–
293.15 K, m1 = 0.000728	0.00256	–
293.15 K, m1 = 0.0007507	0.00261	–
293.15 K, m1 = 0.0007734	0.00266	–
293.15 K, m1 = 0.0007961	0.00271	–
293.15 K, m1 = 0.0008188	0.00276	–
293.15 K, m1 = 0.0008415	0.00281	–
293.15 K, m1 = 0.0008642	0.00286	–
293.15 K, m1 = 0.0008869	0.00291	–
293.15 K, m1 = 0.000887	–	30.48
293.15 K, m1 = 0.001774	–	29.73
293.15 K, m1 = 0.002661	–	29.56
293.15 K, m1 = 0.003547	–	29.48
298.15 K, m1 = 1.77e-05	0.00054	–
298.15 K, m1 = 1.774e-05	–	56.05
298.15 K, m1 = 3.548e-05	–	49.71
298.15 K, m1 = 4.07e-05	0.000642	–
298.15 K, m1 = 6.36e-05	0.000745	–
298.15 K, m1 = 8.66e-05	0.000848	–
298.15 K, m1 = 8.87e-05	–	41.62
298.15 K, m1 = 0.0001095	0.00095	–
298.15 K, m1 = 0.0001324	0.00105	–
298.15 K, m1 = 0.0001554	0.00115	–
298.15 K, m1 = 0.0001774	–	35.73
298.15 K, m1 = 0.0001783	0.00126	–
298.15 K, m1 = 0.0002013	0.00136	–
298.15 K, m1 = 0.0002242	0.00146	–
298.15 K, m1 = 0.0002472	0.00156	–
298.15 K, m1 = 0.0002661	–	32.44
298.15 K, m1 = 0.0002701	0.00167	–
298.15 K, m1 = 0.000293	0.00177	–
298.15 K, m1 = 0.000316	0.00187	–
298.15 K, m1 = 0.0003389	0.00198	–
298.15 K, m1 = 0.0003619	0.00208	30.45
298.15 K, m1 = 0.0003881	0.00215	–
298.15 K, m1 = 0.0004144	0.00222	–
298.15 K, m1 = 0.0004406	0.00229	–
298.15 K, m1 = 0.0004669	0.00237	–
298.15 K, m1 = 0.0004931	0.00244	–
298.15 K, m1 = 0.0005194	0.00251	–
298.15 K, m1 = 0.0005456	0.00258	–
298.15 K, m1 = 0.0005719	0.00265	–
298.15 K, m1 = 0.0005981	0.00273	–
298.15 K, m1 = 0.0006244	0.0028	–
298.15 K, m1 = 0.0006507	0.00287	–
298.15 K, m1 = 0.0006769	0.00294	–
298.15 K, m1 = 0.0007032	0.00301	–
298.15 K, m1 = 0.0007294	0.00309	–
298.15 K, m1 = 0.0007557	0.00316	–
298.15 K, m1 = 0.0007819	0.00323	–
298.15 K, m1 = 0.0008082	0.0033	–
298.15 K, m1 = 0.0008344	0.00337	–
298.15 K, m1 = 0.0008607	0.00345	–
298.15 K, m1 = 0.0008869	0.00352	–
298.15 K, m1 = 0.000887	–	29.41
298.15 K, m1 = 0.001774	–	28.9
298.15 K, m1 = 0.002661	–	28.56
298.15 K, m1 = 0.003547	–	28.41
303.15 K, m1 = 1.77e-05	0.00064	–
303.15 K, m1 = 1.774e-05	–	51.35
303.15 K, m1 = 3.548e-05	–	46.22
303.15 K, m1 = 3.66e-05	0.000736	–
303.15 K, m1 = 5.54e-05	0.000832	–
303.15 K, m1 = 7.43e-05	0.000928	–
303.15 K, m1 = 8.87e-05	–	38.79
303.15 K, m1 = 9.31e-05	0.00102	–
303.15 K, m1 = 0.000112	0.00112	–
303.15 K, m1 = 0.0001308	0.00122	–
303.15 K, m1 = 0.0001497	0.00131	–
303.15 K, m1 = 0.0001685	0.00141	–
303.15 K, m1 = 0.0001774	–	33.47
303.15 K, m1 = 0.0001874	0.00151	–
303.15 K, m1 = 0.0002062	0.0016	–
303.15 K, m1 = 0.0002251	0.0017	–
303.15 K, m1 = 0.0002439	0.00179	–
303.15 K, m1 = 0.0002628	0.00189	–
303.15 K, m1 = 0.0002661	–	30.23
303.15 K, m1 = 0.0002816	0.00199	–
303.15 K, m1 = 0.0003004	0.00208	–
303.15 K, m1 = 0.0003193	0.00218	–
303.15 K, m1 = 0.0003229	–	29.48
303.15 K, m1 = 0.0003451	0.00227	–
303.15 K, m1 = 0.0003548	–	29.41
303.15 K, m1 = 0.0003709	0.00236	–
303.15 K, m1 = 0.0003967	0.00245	–
303.15 K, m1 = 0.0004225	0.00254	–
303.15 K, m1 = 0.0004483	0.00263	–
303.15 K, m1 = 0.0004741	0.00272	–
303.15 K, m1 = 0.0004999	0.00281	–
303.15 K, m1 = 0.0005257	0.00291	–
303.15 K, m1 = 0.0005515	0.003	–
303.15 K, m1 = 0.0005773	0.00309	–
303.15 K, m1 = 0.0006031	0.00318	–
303.15 K, m1 = 0.0006289	0.00327	–
303.15 K, m1 = 0.0006547	0.00336	–
303.15 K, m1 = 0.0006805	0.00345	–
303.15 K, m1 = 0.0007063	0.00354	–
303.15 K, m1 = 0.0007321	0.00363	–
303.15 K, m1 = 0.0007579	0.00372	–
303.15 K, m1 = 0.0007837	0.00381	–
303.15 K, m1 = 0.0008095	0.00391	–
303.15 K, m1 = 0.0008353	0.004	–
303.15 K, m1 = 0.0008611	0.00409	–
303.15 K, m1 = 0.0008869	0.00418	–
303.15 K, m1 = 0.000887	–	28.48
303.15 K, m1 = 0.001774	–	28.01
303.15 K, m1 = 0.002661	–	27.82
303.15 K, m1 = 0.003547	–	27.65
308.15 K, m1 = 8.869e-06	–	52.23
308.15 K, m1 = 1.77e-05	0.00074	–
308.15 K, m1 = 1.774e-05	–	47.19
308.15 K, m1 = 3.42e-05	0.000841	–
308.15 K, m1 = 3.548e-05	–	42.29
308.15 K, m1 = 5.07e-05	0.000941	–
308.15 K, m1 = 6.72e-05	0.00104	–
308.15 K, m1 = 8.36e-05	0.00114	–
308.15 K, m1 = 8.87e-05	–	35.88
308.15 K, m1 = 0.0001001	0.00124	–
308.15 K, m1 = 0.0001166	0.00134	–
308.15 K, m1 = 0.000133	0.00144	–
308.15 K, m1 = 0.0001495	0.00154	–
308.15 K, m1 = 0.000166	0.00165	–
308.15 K, m1 = 0.0001774	–	30.89
308.15 K, m1 = 0.0001825	0.00175	–
308.15 K, m1 = 0.0001989	0.00185	–
308.15 K, m1 = 0.0002154	0.00195	–
308.15 K, m1 = 0.0002319	0.00205	–
308.15 K, m1 = 0.0002483	0.00215	28.73
308.15 K, m1 = 0.0002732	–	28.57
308.15 K, m1 = 0.0002803	0.00229	–
308.15 K, m1 = 0.0003122	0.00243	–
308.15 K, m1 = 0.0003441	0.00257	–
308.15 K, m1 = 0.0003548	–	28.44
308.15 K, m1 = 0.0003761	0.00271	–
308.15 K, m1 = 0.000408	0.00285	–
308.15 K, m1 = 0.0004399	0.00299	–
308.15 K, m1 = 0.0004718	0.00313	–
308.15 K, m1 = 0.0005038	0.00327	–
308.15 K, m1 = 0.0005357	0.00341	–
308.15 K, m1 = 0.0005676	0.00356	–
308.15 K, m1 = 0.0005996	0.00369	–
308.15 K, m1 = 0.0006315	0.00384	–
308.15 K, m1 = 0.0006634	0.00398	–
308.15 K, m1 = 0.0006954	0.00412	–
308.15 K, m1 = 0.0007273	0.00426	–
308.15 K, m1 = 0.0007592	0.0044	–
308.15 K, m1 = 0.0007911	0.00454	–
308.15 K, m1 = 0.0008231	0.00468	–
308.15 K, m1 = 0.000855	0.00482	–
308.15 K, m1 = 0.0008869	0.00496	–
308.15 K, m1 = 0.000887	–	27.73
308.15 K, m1 = 0.001774	–	27.41
308.15 K, m1 = 0.002661	–	27.23
